# Measurements published in patent US20240307382A1, “MODULATORS OF THE INTEGRATED STRESS PATHWAY” (Calico Life Sciences LLC, priority 2017, published 2024).
# Test system: HEK293T cells carrying the ATF4 luciferase reporter
# Assay: ATF4-Luc assay (ATF4 luciferase reporter, tunicamycin-treated cells)
# Assay type: cell-based
# Conditions: Homo sapiens, HEK-293T, 1 μg/mL tunicamycin, 7 hours
# Procedure: In order to test exemplary compounds of the invention in a cellular context, a stable VWMD cell line was first constructed. The ATF4 reporter was prepared by fusing the human full-length ATF4 5′-UTR (NCBI Accession No. BC022088.2) in front of the firefly luciferase (FLuc) coding sequence lacking the initiator methionine as described in Sidrauski et al (eLife 2013). The construct was used to produce recombinant retroviruses using standard methods and the resulting viral supermatant was used to transduce ITEK293T cells, which were then subsequently selected with puromycin to generate a stable cell line.
# HTEK293T cells carrying the ATF4 luciferase reporter were plated on polylysine coated 384-well plates (Greiner Bio-one) at 30,000 cells per well. Cells were treated the next day with 1 μg/mL tunicamycin and 200 nM of a compound of Formula (I) for 7 hours. Luminescence was measured using One Glo (Promega) as specified by the manufacturer. Cells were maintained in DMEM with L-glutamine supplemented with 10% heat-inactivated FBS (Gibco) and Antibiotic-Antimycotic solution (Gibco).
# Table 2 below summarizes the EC50 data obtained using the ATF4-Luc assay for exemplary compounds of the invention.
row,SMILES,EC50 [nM]
1,"O=C(COc1ccc(Cl)c(F)c1)NC12CC(Nc3cccc(-n4ccccc4=O)n3)(C1)C2 [Compound 954, 2-(4-chloro-3-fluorophenoxy)-N-{3-[(2-oxo-2H-[1,2′-bipyridin]-6′-yl)amino]bicyclo[1.1.1]pentan-1-yl}acetamide]",> 2000
2,"Cc1cc(C(=O)NC23CCC(NC(=O)COc4ccc(Cl)cc4)(CC2)[C@@H](O)C3)on1 [Compound 1016, N-{(3S)-4-[2-(4-chlorophenoxy)acetamido]-3-hydroxybicyclo[2.2.2]octan-1-yl}-3-methyl-1,2-oxazole-5-carboxamide]",50 to 250
3,"O=C(CO)Nc1cc(F)c(F)cc1C(=O)NC12CC(NC(=O)COc3ccc(Cl)c(F)c3)(C1)C2 [Compound 1059, N-{3-[2-(4-chloro-3-fluorophenoxy)acetamido]bicyclo[1.1.1]pentan-1-yl}-4,5-difluoro-2-(2-hydroxyacetamido)benzamide]",50 to 250
4,"CCc1cnc(C(=O)NC23CCC(NC(=O)COc4ccc(Cl)c(F)c4)(CC2)CC3)cn1 [Compound 979, N-{4-[2-(4-chloro-3-fluorophenoxy)acetamido]bicyclo[2.2.2]octan-1-yl}-5-ethylpyrazine-2-carboxamide]",> 2000
5,"O=C(COc1ccc(Cl)c(Cl)c1)NC12CCC(NC(=O)c3ccc(C(F)F)cn3)(CC1)C[C@@H]2O [Compound 990, N-{(3S)-4-[2-(3,4-dichlorophenoxy)acetamido]-3-hydroxybicyclo[2.2.2]octan-1-yl}-5-(difluoromethyl)pyridine-2-carboxamide]",< 50
6,"O=C(COc1ccc(Cl)c(Cl)c1)NC12CCC(NC(=O)c3ccc(OC(F)(F)F)nc3)(CC1)C[C@@H]2O [Compound 1001, N-{(3S)-4-[2-(3,4-dichlorophenoxy)acetamido]-3-hydroxybicyclo[2.2.2]octan-1-yl}-6-(trifluoromethoxy)pyridine-3-carboxamide]",< 50
7,"Cc1onc(C(=O)NC23CC(NC(=O)COc4ccc(Cl)c(F)c4)(C2)C3)c1C(=O)Nc1ncc(C(F)(F)F)cc1Cl [Compound 1081, N^3-{3-[2-(4-chloro-3-fluorophenoxy)acetamido]bicyclo[1.1.1]pentan-1-yl}-N^4-[3-chloro-5-(trifluoromethyl)pyridin-2-yl]-5-methyl-1,2-oxazole-3,4-dicarboxamide]",> 2000
8,"O=C(COc1ccc(Cl)c(F)c1)NC12CCC(NC(=O)c3coc(C(F)F)n3)(CC1)C[C@@H]2O [Compound 969, N-{(3S)-4-[2-(4-chloro-3-fluorophenoxy)acetamido]-3-hydroxybicyclo[2.2.2]octan-1-yl}-2-(difluoromethyl)-1,3-oxazole-4-carboxamide]",< 50
9,"O=C(COc1cccc(F)c1)NC12CCC(NC(=O)c3cc(C(F)F)no3)(CC1)C[C@@H]2O [Compound 1070, 3-(difluoromethyl)-N-{(3S)-4-[2-(3-fluorophenoxy)acetamido]-3-hydroxybicyclo[2.2.2]octan-1-yl}-1,2-oxazole-5-carboxamide]",50 to 250
10,"O=C(COc1ccc(Cl)c(Cl)c1)NC12CCC(NC(=O)c3cnc4ccccc4n3)(CC1)C[C@@H]2O [Compound 1008, N-{(3S)-4-[2-(3,4-dichlorophenoxy)acetamido]-3-hydroxybicyclo[2.2.2]octan-1-yl}quinoxaline-2-carboxamide]",< 50
11,"O=C(COc1ccc(Cl)c(Cl)c1)NC12CCC(NC(=O)c3cc(C(F)F)no3)(CC1)NC2=O [Compound 1048, N-{4-[2-(3,4-dichlorophenoxy)acetamido]-3-oxo-2-azabicyclo[2.2.2]octan-1-yl}-3-(difluoromethyl)-1,2-oxazole-5-carboxamide]",> 2000
12,"O=C(COc1ccc(Cl)c(Cl)c1)NC12CCC(NC(=O)c3cccc(C(F)(F)F)n3)(CC1)C[C@@H]2O [Compound 1027, N-{(3S)-4-[2-(3,4-dichlorophenoxy)acetamido]-3-hydroxybicyclo[2.2.2]octan-1-yl}-6-(trifluoromethyl)pyridine-2-carboxamide]",< 50
